Data from PMC6311682, “Design, Synthesis, and Biological Evaluation of 2-Nitroimidazopyrazin-one/-es with Antitubercular and Antiparasitic Activity” (Journal of Medicinal Chemistry, 2018).
Converted amounts (≈) assume the structure as drawn. Like-named read-outs stand apart in the source and are kept apart here.

Tests used:
[1] = tested on: C. albicans (ATCC 90028) and C. neoformans (H99, ATCC 208821); experiment: Broth microdilution MIC assay, fungi; format: cell-based; conditions: for MIC: Candida albicans, read-out: antifungal MIC
[2] = Broth microdilution MIC assay, ESKAPE pathogens; format: cell-based; conditions: S. aureus, E. coli, K. pneumoniae, A. baumannii, P. aeruginosa; read-out: antibacterial MIC ESKAPE
[3] = tested on: L. donovani MHOM/IN/80/DD8 (ATCC50212); experiment: L. donovani DD8 intracellular (THP-1) amastigote assay; format: cell-based; conditions: Leishmania donovani
[4] = Mammalian cytotoxicity assay (resazurin), HEK293; conditions: human, HEK293 cells
[5] = Mammalian cytotoxicity assay (resazurin), HepG2; conditions: human, HepG2 cells
[6] = Kinetic solubility determination by LC-UV; conditions: room temperature, 1% DMSO
[7] = tested on: ESKAPE pathogens S. aureus (ATCC 43300), E. coli (ATCC 25922), K. pneumoniae (ATCC 700603), A. baumannii (ATCC 19606), P. aeruginosa (ATCC 27853); experiment: Broth microdilution MIC assay, ESKAPE pathogens; format: cell-based
[8] = tested on: C. difficile (630, ATCC BAA-1382); experiment: Broth microdilution MIC assay, C. difficile; format: cell-based, Clostridium difficile; conditions: 630 ATCC BAA-1382, median MIC; for MIC: Clostridioides difficile, ATCCBAA1382, read-out: antibacterial MIC C. difficile
[9] = tested on: E. histolytica (HM1:IMSS); experiment: ATP-bioluminescence cell growth and survival assay, E. histolytica trophozoites; format: cell-based; conditions: Entamoeba histolytica
[10] = read-out: antiparasitic IC50 L. donovani
[11] = read-out: antiparasitic pIC50 ± SE L. donovani (converted)
[12] = PBS, pH 7.4, Solubility µM (PBS), PBS pH 7.4, 24 h
[13] = water, Solubility µM (H2O), 24 h
[14] = read-out: antiparasitic IC50 E. histolytica
[15] = read-out: antiparasitic pIC50 ± SE E. histolytica (converted)

SMILES | MIC [1] [µg/mL] | MIC [2] [µg/mL] | IC50 [3, 10] [µM] | IC50 [3, 11] [µM] | CC50 at 24 h [4] [µM] | CC50 at 24 h [5] [µM] | solubility at 24 h [6, 12] [µM] | solubility at 24 h [6, 13] [µM] | antifungal MIC [1] [µg/mL] | antibacterial MIC ESKAPE [7] [µg/mL] | antibacterial MIC C. difficile [8] [µg/mL] | MIC [8] [µg/mL] | IC50 [9, 14] [µM] | IC50 [9, 15] [µM]
Cc1cn2cc([N+](=O)[O-])nc2c(OCc2cccc(OC(F)(F)F)c2)n1 [25k] | > 32 | > 32 | > 40 | > 39.8 | > 100 | > 100 |  |  |  |  |  |  |  | 
Cc1cn2cc([N+](=O)[O-])nc2c(OCc2ccccc2OC(F)(F)F)n1 [25m, 6-Methyl-2-nitro-8-((2-(trifluoromethoxy)benzyl)oxy)imidazo[1,2-a]pyrazine] | > 32 | > 32 | > 40 | > 39.8 | > 100 | > 100 | < 5 | < 5 |  |  |  |  |  | 
Cc1nc(OCc2ccccc2OC(F)(F)F)c2nc([N+](=O)[O-])cn2c1C [26i, 5,6-Dimethyl-2-nitro-8-((2-(trifluoromethoxy)benzyl)oxy)imidazo[1,2-a]pyrazine] | > 32 | > 32 |  |  | > 100 | > 100 | < 5 | < 5 | >32 | >32 |  |  |  | 
Cc1ccc(CNC(=O)c2nc([N+](=O)[O-])c[nH]2)cc1 [16d, N-(4-Methylbenzyl)-5-nitro-1H-imidazole-2-carboxamide] |  |  |  |  | > 100 | > 100 |  |  |  |  |  |  |  | 
Cc1c(C)n2cc([N+](=O)[O-])nc2c(=O)n1Cc1cccc(OC(F)(F)F)c1 [26f, 5,6-Dimethyl-2-nitro-7-(3-(trifluoromethoxy)benzyl)imidazo[1,2-a]pyrazin-8(7H)-one] | > 32 | > 32 |  |  |  | 25.6 to 80 | 15.7 ± 0.404 (≈ 6 µg/mL) | 15.9 ± 1.55 (≈ 6.08 µg/mL) | >32 | >32 |  |  |  | 
Cc1c(C)n2cc([N+](=O)[O-])nc2c(=O)n1Cc1ccccc1OC(F)(F)F [26h, 5,6-Dimethyl-2-nitro-7-(2-(trifluoromethoxy)benzyl)imidazo[1,2-a]pyrazin-8(7H)-one] | > 32 | > 32 |  |  | > 100 | > 100 | 4.6 ± 0.6 (≈ 1.76 µg/mL) | 7.28 ± 0.695 (≈ 2.78 µg/mL) | >32 | >32 |  |  |  | 
Cc1ccc(Cn2c(C)c(C)n3cc([N+](=O)[O-])nc3c2=O)cc1 [26d, 5,6-Dimethyl-7-(4-methylbenzyl)-2-nitroimidazo[1,2-a]pyrazin-8(7H)-one] | > 32 | > 32 | > 40 | > 39.8 | > 100 | > 100 | 6.13 ± 0.0957 (≈ 1.91 µg/mL) | 8.95 ± 1.51 (≈ 2.8 µg/mL) | >32 | >32 |  |  |  | 
Cc1ccc(COc2nc(C)c(C)n3cc([N+](=O)[O-])nc23)cc1 [26e, 5,6-Dimethyl-8-((4-methylbenzyl)oxy)-2-nitroimidazo[1,2-a]pyrazine] | > 32 | > 32 | > 20 | > 20 | > 100 | > 100 | < 5 | < 5 | >32 | >32 |  |  |  | 
O=c1c2nc([N+](=O)[O-])cn2ccn1CCO [17p, 7-(2-Hydroxyethyl)-2-nitroimidazo[1,2-a]pyrazin-8(7H)-one] |  | > 32 | > 80 | > 79.4 |  |  | > 200 | > 200 |  | >32 | >64 | > 64 | > 50 | > 50.1
Cc1cn2cc([N+](=O)[O-])nc2c(=O)n1Cc1cccc(OC(F)(F)F)c1 [25j, 6-Methyl-2-nitro-7-(3-(trifluoromethoxy)benzyl)imidazo[1,2-a]pyrazin-8(7H)-one] | > 32 | > 32 | > 20 | > 20 | > 100 | > 100 | < 5 | < 5 | >32 | >32 |  |  |  | 
NC(=O)Cn1ccn2cc([N+](=O)[O-])nc2c1=O [17s, 2-(2-Nitro-8-oxoimidazo[1,2-a]pyrazin-7(8H)-yl)acetamide] |  | > 32 | > 80 | > 79.4 |  |  | > 200 | > 200 |  | >32 | >64 | > 64 | > 50 | > 50.1
Cc1ccc(Cn2cc([N+](=O)[O-])nc2C(N)=O)cc1 [28d] |  |  |  |  | > 100 | > 100 |  |  |  |  |  |  |  | 
O=C(NCc1ccccc1)c1nc([N+](=O)[O-])c[nH]1 [16b, N-Benzyl-5-nitro-1H-imidazole-2-carboxamide] |  |  |  |  | > 100 | > 100 |  |  |  |  |  |  |  | 
Cc1nc(OCc2cccc(OC(F)(F)F)c2)c2nc([N+](=O)[O-])cn2c1C [26g, 5,6-Dimethyl-2-nitro-8-((3-(trifluoromethoxy)benzyl)oxy)imidazo[1,2-a]pyrazine] | > 32 | > 32 | > 20 | > 20 | > 100 | > 100 | < 5 | < 5 | >32 | >32 |  |  |  | 
NC(=O)c1nc([N+](=O)[O-])cn1Cc1ccccc1 [28b] |  |  |  |  | > 100 | > 100 |  |  |  |  |  |  |  | 
Cc1cn2cc([N+](=O)[O-])nc2c(=O)n1Cc1ccccc1OC(F)(F)F [25l, 6-Methyl-2-nitro-7-(2-(trifluoromethoxy)benzyl)imidazo[1,2-a]pyrazin-8(7H)-one] | > 32 | > 32 | > 40 | > 39.8 | > 100 | > 100 | < 5 | < 5 | >32 | >32 |  |  |  | 
Cc1ccc(COc2nc(C)cn3cc([N+](=O)[O-])nc23)cc1 [25i, 6-Methyl-8-((4-methylbenzyl)oxy)-2-nitroimidazo[1,2-a]pyrazine] | > 32 | > 32 |  |  | > 100 | > 100 | < 5 | < 5 | >32 | >32 |  |  |  | 
CC(c1ccc(F)cc1)n1ccn2cc([N+](=O)[O-])nc2c1=O (centres unmarked) [17l, 7-(1-(4-Fluorophenyl)ethyl)-2-nitroimidazo[1,2-a]pyrazin-8(7H)-one] |  | > 32 | > 80 | > 79.4 |  |  | < 10 | < 10 |  | >32 | >64 | > 64 | > 50 | > 50.1
O=C(Cn1ccn2cc([N+](=O)[O-])nc2c1=O)N1CCOCC1 [17r, 7-(2-Morpholino-2-oxoethyl)-2-nitroimidazo[1,2-a]pyrazin-8(7H)-one] |  | > 32 | > 80 | > 79.4 |  |  | 194 ± 0.526 (≈ 59.6 µg/mL) | 192 ± 1.51 (≈ 59 µg/mL) |  | >32 | >64 | > 64 | > 50 | > 50.1
